Paper PMC8137473, “Preclinical trial of a MAP4K4 inhibitor to reduce infarct size in the pig: does cardioprotection in human stem cell-derived myocytes predict success in large mammals?” (Basic Research in Cardiology, 2021)

Key:
porcine model of MI [1] = assay: efficacy study, LAD occlusion 60 min / reperfusion 24 h: infarct size, no-reflow, area at risk; format: in vivo, swine
Experimental: Next, an efficacy study was performed, in adherence to published guidelines for rigor and reproducibility, to evaluate the postulated benefit of DMX-10001 in a large-mammal model of MI. Briefly, 36 closed-chest swine (41 ± 2 kg) were subjected to regional ischemia by occluding the left anterior descending coronary artery (LAD) distal to the first diagonal branch for 60 min, followed by 24 h of reperfusion. Treatment with DMX-10001 (60 mg/kg/h for 0.5 h, followed by 17 mg/kg/h for 23.5 h) versus the vehicle was initiated 20 min prior to reperfusion and continued for 1 day. After 2 h of reperfusion, animals were allowed to recover from anesthesia. At 24 h of reperfusion, the infarct area (IA), area of no-reflow (NR), and area at ischemic risk (AAR) were determined. Transthoracic short-axis B-mode echocardiograms and measurements of LV pressure and its first derivative (LVdP/dt) were obtained at baseline and at 24 h of reperfusion. LV pressure–volume measurements were obtained at 24 h of reperfusion. Heart-type fatty acid binding protein (hFABP) release was measured, as a biomarker that correlates with IS and NR in swine at least as well as cardiac troponin I [30].
The LAD was catheterized with a standard clinical guiding catheter (JL3.5, 6F, Medtronic, Minneapolis, MN), and quantitative coronary angiography (CAAS, PIE Medical, Maastricht, The Netherlands) was performed following 2 mg isosorbidedinitrate (Cedocard, Nycomed, Hoofddorp, The Netherlands) and using iodixanol as contrast agent (Visipaque™, GE Healthcare BV, Eindhoven, The Netherlands). Then, an over-the-wire coronary angioplasty balloon (Sprinter OTW, 2–3 mm × 6 mm, Medtronic, Minneapolis, MN) on a standard guide wire (0.014″, 180 cm, ASAHI SION blue, ASAHI Intecc co Ltd, Aichi, Japan) was carefully positioned under fluoroscopic guidance distal to the first diagonal branch. Following balloon inflation, total coronary occlusion was confirmed by angiography (at baseline and at 58 min of occlusion) and by ECG changes. Animals that developed VF during the protocol were defibrillated within 25 ± 10 s. After 1 h of occlusion, the coronary balloon was deflated to establish reperfusion, which was angiographically confirmed to ensure an adequate coronary blood flow to the entire LAD perfusion territory. Heart rate, aortic blood pressure, and ECG were monitored until 2 h of reperfusion.
Twenty min before the onset of reperfusion, an initial rapid administration was started (30 min infusion, 60 mg/kg/h, Alaris CC, Cardinal Health, Role, Switzerland), followed after 10 min of reperfusion by a lower sustained dose (23.5 h infusion, 17 mg/kg/h, Myfuser, CANOX medical Device Srl, Capurso, Italy). The dosing regimen was determined by iterative computer modeling (XenoGesis Ltd, Alderley Park, UK) (Fig. 1b), based on prior dose-finding studies in pigs (data not shown).
After completing the post-infarct LV functional measurements on day two, the LAD was again catheterized, as before. The over-the-wire coronary angioplasty balloon and guide wire were positioned under fluoroscopic guidance at the same position, using anatomic landmarks (distance from sidebranches) visualized by coronary angiography. Through the lumen of the balloon, 5 ml of 4% (w/v) thioflavin-S solution (Sigma, Zwijndrecht, The Netherlands) were injected, allowing the area of no-reflow within the AAR to be measured later histologically. The balloon was re-inflated to re-occlude the LAD and a sternotomy was performed. Next, a bolus of 40 ml of a 15% (w/v) Evans Blue solution was injected into the left atrium for negative staining of the AAR. To facilitate excision, the heart was arrested via induction of VF by gently touching the LV epicardium with a 9 V battery. The LV was isolated and sectioned into 5 transverse slices. The AAR and area of no-reflow (NR), visualized using UV light, were quantified in all sections. […]

porcine model of MI [2] = assay: efficacy study: convertible ventricular fibrillation and defibrillation; parameters: species or system swine; conditions: in vivo
Experimental: Investigators involved in the experimental protocol and analysis of the data were blinded to the treatment status of each pig. Animals were randomly assigned to the treatment groups in two blocks, using a random number series generated online. To control further for potential investigator bias, inclusion and exclusion criteria were formulated prior to the onset of the study. Only healthy pigs weighing 38–48 kg, with a body temperature between 37.0 and 40.0 °C at the start of surgical preparation, were included. Exclusion criteria were: (i) Encountering ventricular fibrillation (VF) during the experimental protocol that could not be converted to sinus rhythm within 2 min. (ii) Encountering VF > 4 times before starting the drug or vehicle infusion. (iii) Developing progressive pump failure (mean arterial pressure (MAP) < 30 mmHg) during first 30 min of reperfusion. […]
The LAD was catheterized with a standard clinical guiding catheter (JL3.5, 6F, Medtronic, Minneapolis, MN), and quantitative coronary angiography (CAAS, PIE Medical, Maastricht, The Netherlands) was performed following 2 mg isosorbidedinitrate (Cedocard, Nycomed, Hoofddorp, The Netherlands) and using iodixanol as contrast agent (Visipaque™, GE Healthcare BV, Eindhoven, The Netherlands). […] Heart rate, aortic blood pressure, and ECG were monitored until 2 h of reperfusion.

COCCOc1ccc(-c2cn(-c3ccccc3)c3ncn(COP(=O)(O)O)c(=O)c23)cc1 [DMX-10001]
IS/AAR (porcine model of MI [1]; excluding one statistical outlier, n = 11): 82.1 ± 8.6%
difference in IS/AAR vs the vehicle control (porcine model of MI [1]; excluding one statistical outlier, P = 0.0562): 7%
effect on NR, NR/AAR or NR/IS (porcine model of MI [1]; full cohort): no significant effect
IS/AAR (porcine model of MI [1]; full cohort, n = 12): 76.3 ± 21.6%
extent of infarction (IS) (porcine model of MI [1]; full cohort, n = 12): 18.2 ± 5.8 g
extent of infarction (IS) as % of LV mass (porcine model of MI [1]; full cohort, n = 12): 17.2 ± 5.7%
reduction of the extent of infarction in grams or % of LV mass vs vehicle (porcine model of MI [1]; full cohort, n = 12 per group): 27%
reduction in mean IS/AAR vs vehicle (porcine model of MI [1]; full cohort, not significant (P = 0.0817)): 13%
IS or no-reflow corrected for the area at ischemic risk (porcine model of MI [1]; in vivo): No significant reduction
ANCOVA: slopes of IS and NR as a function of AAR, NR as a function of IS (porcine model of MI [1]; n = 11): No significant differences
VF during drug infusion (porcine model of MI [2]): did not occur
